Assay results reported in patent publication US8796256B2 (Janssen Pharmaceutica NV, priority 2010, dated 2014).

biological target: T1, ERR1 (also known as ERR-α or ERR-1) (Homo sapiens, UniProt P11474); test: TR-FRET assay (disruption of co-activator peptide binding to ERR1 LBD); type: biochemical; settings: 6 nM 6His-ERR1LBD, 6 nM GST-SRC-2 peptide; average of 3 independent experiments
T1 sequence (P11474 193-421 limits assumed): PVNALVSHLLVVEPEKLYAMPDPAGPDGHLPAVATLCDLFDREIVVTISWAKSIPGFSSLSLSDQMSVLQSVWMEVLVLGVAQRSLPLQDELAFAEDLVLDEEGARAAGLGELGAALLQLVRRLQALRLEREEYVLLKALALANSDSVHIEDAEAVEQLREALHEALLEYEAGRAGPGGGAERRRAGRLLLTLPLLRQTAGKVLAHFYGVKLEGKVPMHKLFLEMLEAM
How it was run: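 Homogeneous TR-FRET measuring displacement of GST-hSRC2 co-activator peptide (6 nM) from His-tagged ERR1 LBD (6 nM), detected with α-GST Eu cryptate (30 nM) and α-His-XL665 (7.5 nM). Buffer 25 mM Tris pH 8, 2.5 mM Hepes, 20 mM KCl, 1 mM DTT, 0.05 mg/mL delipidated BSA; equilibration 4-18 h at 25° C. Hyperbolic dose-response fit, mean of 3 experiments.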

First: NC(=O)CN1CCC[C@H]1CN1C(=O)S/C(=C\c2ccc3c(cnn3Cc3ccc(Cl)cc3C(F)(F)F)c2)C1=O [Compound 297, 2-[(2S)-2-{[(5Z)-5-({1-[4-Chloro-2-(trifluoromethyl)benzyl]-1H-indazol-5-yl}methylidene)-2,4-dioxo-1,3-thiazolidin-3-yl]methyl}pyrrolidin-1-yl]acetamide]
Second: NC(=O)CN1CCC[C@@H]1CN1C(=O)S/C(=C\c2ccc3c(cnn3Cc3ccc(Cl)cc3C(F)(F)F)c2)C1=O [Compound 298, 2-[(2R)-2-{[(5Z)-5-({1-[4-Chloro-2-(trifluoromethyl)benzyl]-1H-indazol-5-yl}methylidene)-2,4-dioxo-1,3-thiazolidin-3-yl]methyl}pyrrolidin-1-yl]acetamide]
The EC50 of the first is 1.6-fold higher: 76 nM for the first, 49 nM for the second. The second is the more potent here.

Compared with `NC(=O)CN1CC[C@@H](CN2C(=O)S/C(=C\c3ccc4c(cnn4Cc4ccc(Cl)cc4C(F)(F)F)c3)C2=O)C1` [Compound 299, 2-[(3R)-3-{[(5Z)-5-({1-[4-Chloro-2-(trifluoromethyl)benzyl]-1H-indazol-5-yl}methylidene)-2,4-dioxo-1,3-thiazolidin-3-yl]methyl}pyrrolidin-1-yl]acetamide], `NC1(CN2C(=O)S/C(=C\c3ccc4c(cnn4Cc4ccc(Cl)cc4C(F)(F)F)c3)C2=O)CCC1` [Compound 314, (5Z)-3-[(1-Aminocyclobutyl)methyl]-5-({1-[4-chloro-2-(trifluoromethyl)benzyl]-1H-indazol-5-yl}methylidene)-1,3-thiazolidine-2,4-dione] is 22-fold higher in EC50: 37 nM for the first, 830 nM for the second.

Compared with `O=C1S/C(=C\c2ccc3c(c2)c(Cl)nn3Cc2ccc(Cl)cc2C(F)(F)F)C(=O)N1CCN1CCCC1` [Compound 300, (5Z)-5-({3-Chloro-1-[4-chloro-2-(trifluoromethyl)benzyl]-1H-indazol-5-yl}methylidene)-3-(2-pyrrolidin-1-ylethyl)-1,3-thiazolidine-2,4-dione], `CN1CCC[C@H]1CN1C(=O)S/C(=C\c2ccc3c(c2)c(Cl)nn3Cc2ccc(Cl)cc2C(F)(F)F)C1=O` [Compound 301, (5Z)-5-({3-Chloro-1-[4-chloro-2-(trifluoromethyl)benzyl]-1H-indazol-5-yl}methylidene)-3-{[(2S)-1-methylpyrrolidin-2-yl]methyl}-1,3-thiazolidine-2,4-dione] is 2.1-fold higher in EC50: 7 nM for the first, 15 nM for the second.

Going from `O=C(O)C1CCC(N2C(=O)S/C(=C\c3ccc4c(c3)c(Cl)nn4Cc3ccc(Cl)cc3C(F)(F)F)C2=O)CC1` (stereo not drawn) [Compound 302, 4-[(5Z)-5-({3-Chloro-1-[4-chloro-2-(trifluoromethyl)benzyl]-1H-indazol-5-yl}methylidene)-2,4-dioxo-1,3-thiazolidin-3-yl] cyclohexanecarboxylic acid] to `O=C1CNCCC1N1C(=O)S/C(=C\c2ccc3c(cnn3Cc3ccc(Cl)cc3C(F)(F)F)c2)C1=O` (stereo not drawn) [Compound 341, (5Z)-5-({1-[4-Chloro-2-(trifluoromethyl)benzyl]-1H-indazol-5-yl}methylidene)-3-(3-oxopiperidin-4-yl)-1,3-thiazolidine-2,4-dione], the EC50 rises from 2 nM to 39 nM (20-fold). The first is the more potent here.

Going from `O=C1S/C(=C\c2ccc3c(cnn3Cc3ccc(Cl)cc3C(F)(F)F)c2)C(=O)N1CC1(F)CCNCC1` [Compound 303, (5Z)-5-({1-[4-Chloro-2-(trifluoromethyl)benzyl]-1H-indazol-5-yl}methylidene)-3-[(4-fluoropiperidin-4-yl)methyl]-1,3-thiazolidine-2,4-dione] to `CN1CCC(F)(CN2C(=O)S/C(=C\c3ccc4c(cnn4Cc4ccc(Cl)cc4C(F)(F)F)c3)C2=O)CC1` [Compound 304, (5Z)-5-({1-[4-Chloro-2-(trifluoromethyl)benzyl]-1H-indazol-5-yl}methylidene)-3-[(4-fluoro-1-methylpiperidin-4-yl)methyl]-1,3-thiazolidine-2,4-dione], the EC50 falls from 26 nM to 7 nM (3.7-fold).

Going from `O=C1S/C(=C\c2ccc3c(cnn3Cc3ccc(Cl)cc3C(F)(F)F)c2)C(=O)N1CC1(F)CCN(CCO)CC1` [Compound 305, (5Z)-5-({1-[4-Chloro-2-(trifluoromethyl)benzyl]-1H-indazol-5-yl}methylidene)-3-{[4-fluoro-1-(2-hydroxyethyl)piperidin-4-yl]methyl}-1,3-thiazolidine-2,4-dione] to `CCN1CCC(F)(CN2C(=O)S/C(=C\c3ccc4c(cnn4Cc4ccc(Cl)cc4C(F)(F)F)c3)C2=O)CC1` [Compound 306, (5Z)-5-({1-[4-Chloro-2-(trifluoromethyl)benzyl]-1H-indazol-5-yl}methylidene)-3-[(1-ethyl-4-fluoropiperidin-4-yl)methyl]-1,3-thiazolidine-2,4-dione], the EC50 rises from 3 nM to 71 nM (24-fold).

First: [2H]C([2H])([2H])N1CCC(F)(CN2C(=O)S/C(=C\c3ccc4c(cnn4Cc4ccc(Cl)cc4C(F)(F)F)c3)C2=O)CC1 [Compound 307, (5Z)-5-({1-[4-Chloro-2-(trifluoromethyl)benzyl]-1H-indazol-5-yl}methylidene)-3-{[4-fluoro-1-(^2H3)methylpiperidin-4-yl]methyl}-1,3-thiazolidine-2,4-dione]
Second: CN(C)C1(CN2C(=O)S/C(=C\c3ccc4c(cnn4Cc4ccc(Cl)cc4C(F)(F)F)c3)C2=O)CCC1 [Compound 315, (5Z)-5-({1-[4-Chloro-2-(trifluoromethyl)benzyl]-1H-indazol-5-yl}methylidene)-3-{[1-(dimethylamino)cyclobutyl]methyl}-1,3-thiazolidine-2,4-dione]
The EC50 of the first is 3-fold higher: 210 nM for the first, 71 nM for the second.

First: NC1(CN2C(=O)S/C(=C\c3ccc4c(cnn4Cc4ccc(Cl)cc4C(F)(F)F)c3)C2=O)CCOCC1 [Compound 308, (5Z)-3-[(4-Aminotetrahydro-2H-pyran-4-yl)methyl]-5-({1-[4-chloro-2-(trifluoromethyl)benzyl]-1H-indazol-5-yl}methylidene)-1,3-thiazolidine-2,4-dione]
Second: NC1(CCN2C(=O)S/C(=C\c3ccc4c(cnn4Cc4ccc(Cl)cc4C(F)(F)F)c3)C2=O)CCOCC1 [Compound 312, (5Z)-3-[2-(4-Aminotetrahydro-2H-pyran-4-yl)ethyl]-5-({1-[4-chloro-2-(trifluoromethyl)benzyl]-1H-indazol-5-yl}methylidene)-1,3-thiazolidine-2,4-dione]
The EC50 of the first is 13-fold lower: 5 nM for the first, 65 nM for the second. The first is the more potent here.

Compared with `COC(=O)NC1(CN2C(=O)S/C(=C\c3ccc4c(cnn4Cc4ccc(Cl)cc4C(F)(F)F)c3)C2=O)CCOCC1` [Compound 309, Methyl (4-{[(5Z)-5-({1-[4-chloro-2-(trifluoromethyl)benzyl]-1H-indazol-5-yl}methylidene)-2,4-dioxo-1,3-thiazolidin-3-yl]methyl}tetrahydro-2H-pyran-4-yl)carbamate], `O=C(NC1(CN2C(=O)S/C(=C\c3ccc4c(cnn4Cc4ccc(C(F)(F)F)cc4C(F)(F)F)c3)C2=O)CCOCC1)C1CC1` [Compound 311, N-(4-{[(5Z)-5-({1-[2,4-Bis(trifluoromethyl)benzyl]-1H-indazol-5-yl}methylidene)-2,4-dioxo-1,3-thiazolidin-3-yl]methyl}tetrahydro-2H-pyran-4-yl) cyclopropanecarboxamide] is 8.9-fold higher in EC50: 15 nM for the first, 133 nM for the second. The first is the more potent here.

Compared with `NC1(CN2C(=O)S/C(=C\c3ccc4c(cnn4Cc4ccc(C(F)(F)F)cc4C(F)(F)F)c3)C2=O)CCOCC1` [Compound 310, (5Z)-3-[(4-Aminotetrahydro-2H-pyran-4-yl)methyl]-5-({1-[2,4-bis(trifluoromethyl)benzyl]-1H-indazol-5-yl}methylidene)-1,3-thiazolidine-2,4-dione], `NC1(CCN2C(=O)S/C(=C\c3ccc4c(cnn4Cc4ccc(C(F)(F)F)cc4C(F)(F)F)c3)C2=O)CCOCC1` [Compound 313, (5Z)-3-[2-(4-Aminotetrahydro-2H-pyran-4-yl)ethyl]-5-({1-[2,4-bis(trifluoromethyl)benzyl]-1H-indazol-5-yl}methylidene)-1,3-thiazolidine-2,4-dione] is 8.1-fold higher in EC50: 86 nM for the first, 700 nM for the second.

Going from `O=C1S/C(=C\c2ccc3c(cnn3Cc3ccc(Cl)cc3C(F)(F)F)c2)C(=O)N1CCN1CCNS1(=O)=O` [Compound 337, (5Z)-5-({1-[4-Chloro-2-(trifluoromethyl)benzyl]-1H-indazol-5-yl}methylidene)-3-[2-(1,1-dioxido-1,2,5-thiadiazolidin-2-yl)ethyl]-1,3-thiazolidine-2,4-dione] to `COC(=O)N1CCN(CCN2C(=O)S/C(=C\c3ccc4c(cnn4Cc4ccc(Cl)cc4C(F)(F)F)c3)C2=O)S1(=O)=O` [Compound 339, Methyl 5-{2-[(5Z)-5-({1-[4-chloro-2-(trifluoromethyl)benzyl]-1H-indazol-5-yl}methylidene)-2,4-dioxo-1,3-thiazolidin-3-yl]ethyl}-1,2,5-thiadiazolidine-2-carboxylate 1,1-dioxide], the EC50 rises from 47 nM to 106 nM (2.3-fold).

`COC(=O)N1CCN(C(=O)CN2C(=O)S/C(=C\c3ccc4c(cnn4Cc4ccc(Cl)cc4C(F)(F)F)c3)C2=O)S1(=O)=O` [Compound 340, Methyl 5-{[(5Z)-5-({1-[4-chloro-2-(trifluoromethyl)benzyl]-1H-indazol-5-yl}methylidene)-2,4-dioxo-1,3-thiazolidin-3-yl]acetyl}-1,2,5-thiadiazolidine-2-carboxylate 1,1-dioxide] and `CN1CCC(N2C(=O)S/C(=C\c3ccc4c(cnn4Cc4ccc(Cl)cc4C(F)(F)F)c3)C2=O)C(=O)C1` (stereo not drawn) [Compound 342, (5Z)-5-({1-[4-Chloro-2-(trifluoromethyl)benzyl]-1H-indazol-5-yl}methylidene)-3-(1-methyl-3-oxopiperidin-4-yl)-1,3-thiazolidine-2,4-dione] are within 1.5-fold of each other in EC50: 53 nM for the first, 65 nM for the second.
